Tests used:
[1] = test system: Pseudomonas aeruginosa; type: cell-based
[2] = test system: SARS-CoV-2; set-up: species or system Balb/c mice; details: mouse, in vivo
[3] = test system: Staphylococcus aureus; type: cell-based

With `OCCOc1ccccc1` [Formulation 2-PE, 2-Phenoxyethanol] the antimicrobiotic activity [1] was “has antimicrobiotic activity”, the “VNTs after 48 h storage with preservative” value [2] was “more advantageous results” and the antimicrobiotic activity [3] was “has antimicrobiotic activity”.
`C[CH2][Hg][S]c1ccccc1C(=O)[O-].[Na+]` [Thiomersal, Natrium-2-(ethylmercurithio)benzoat] was tested, and the “VNTs after 48 h storage with preservative” value [2] was “slight decrease”.
